Results reported in ChEMBL document CHEMBL1667751, “Synthesis and antimicrobial activity of highly functionalised novel β-lactam grafted spiropyrrolidines and pyrrolizidines” (2011).

Columns and labels:
Proteus vulgaris [1] = test: Antibacterial activity against Proteus vulgaris at 100 ug/ml after 24 hrs agar diffusion method; assay type: functional; conditions: read-out: DIZ
Proteus mirabilis [2] = test: Antibacterial activity against Proteus mirabilis at 100 ug/ml after 24 hrs agar diffusion method; assay type: functional; conditions: read-out: DIZ
Proteus vulgaris [3] = test: Antibacterial activity against Proteus vulgaris at 75 ug/ml after 24 hrs agar diffusion method; assay type: functional; conditions: read-out: DIZ
Proteus vulgaris [4] = test: Antibacterial activity against Proteus vulgaris at 25 ug/ml after 24 hrs agar diffusion method; assay type: functional; conditions: read-out: DIZ
Proteus mirabilis [5] = test: Antibacterial activity against Proteus mirabilis at 50 ug/ml after 24 hrs agar diffusion method; assay type: functional; conditions: read-out: DIZ
Proteus vulgaris [6] = test: Antibacterial activity against Proteus vulgaris at 50 ug/ml after 24 hrs agar diffusion method; assay type: functional; conditions: read-out: DIZ
Staphylococcus aureus [7] = test: Antibacterial activity against Staphylococcus aureus at 25 ug/ml after 24 hrs agar diffusion method; assay type: functional; conditions: read-out: DIZ
Staphylococcus aureus [8] = test: Antibacterial activity against Staphylococcus aureus at 50 ug/ml after 24 hrs agar diffusion method; assay type: functional; conditions: read-out: DIZ
Proteus mirabilis [9] = test: Antibacterial activity against Proteus mirabilis at 75 ug/ml after 24 hrs agar diffusion method; assay type: functional; conditions: read-out: DIZ
Salmonella typhi [10] = test: Antibacterial activity against Salmonella typhi at 100 ug/ml after 24 hrs agar diffusion method; assay type: functional, Salmonella enterica subsp. enterica serovar Typhi; conditions: Salmonella enterica, read-out: DIZ
Salmonella typhi [11] = test: Antibacterial activity against Salmonella typhi at 25 ug/ml after 24 hrs agar diffusion method; assay type: functional, Salmonella enterica subsp. enterica serovar Typhi; conditions: Salmonella enterica, read-out: DIZ
Staphylococcus aureus [12] = test: Antibacterial activity against Staphylococcus aureus at 100 ug/ml after 24 hrs agar diffusion method; assay type: functional; conditions: read-out: DIZ
Staphylococcus aureus [13] = test: Antibacterial activity against Staphylococcus aureus at 75 ug/ml after 24 hrs agar diffusion method; assay type: functional; conditions: read-out: DIZ
Salmonella typhi [14] = test: Antibacterial activity against Salmonella typhi at 75 ug/ml after 24 hrs agar diffusion method; assay type: functional, Salmonella enterica subsp. enterica serovar Typhi; conditions: Salmonella enterica, read-out: DIZ
Salmonella typhi [15] = test: Antibacterial activity against Salmonella typhi at 50 ug/ml after 24 hrs agar diffusion method; assay type: functional, Salmonella enterica subsp. enterica serovar Typhi; conditions: Salmonella enterica, read-out: DIZ
Proteus mirabilis [16] = test: Antibacterial activity against Proteus mirabilis at 25 ug/ml after 24 hrs agar diffusion method; assay type: functional; conditions: read-out: DIZ

Row | Structure (SMILES) | zone of inhibition at 100 µg/mL (Proteus vulgaris [1]) [mm] | zone of inhibition at 100 µg/mL (Proteus mirabilis [2]) [mm] | zone of inhibition at 75 µg/mL (Proteus vulgaris [3]) [mm] | zone of inhibition at 25 µg/mL (Proteus vulgaris [4]) [mm] | zone of inhibition at 50 µg/mL (Proteus mirabilis [5]) [mm] | zone of inhibition at 50 µg/mL (Proteus vulgaris [6]) [mm] | zone of inhibition at 25 µg/mL (Staphylococcus aureus [7]) [mm] | zone of inhibition at 50 µg/mL (Staphylococcus aureus [8]) [mm] | zone of inhibition at 75 µg/mL (Proteus mirabilis [9]) [mm] | zone of inhibition at 100 µg/mL (Salmonella typhi [10]) [mm] | zone of inhibition at 25 µg/mL (Salmonella typhi [11]) [mm] | zone of inhibition at 100 µg/mL (Staphylococcus aureus [12]) [mm] | zone of inhibition at 75 µg/mL (Staphylococcus aureus [13]) [mm] | zone of inhibition at 75 µg/mL (Salmonella typhi [14]) [mm] | zone of inhibition at 50 µg/mL (Salmonella typhi [15]) [mm] | zone of inhibition at 25 µg/mL (Proteus mirabilis [16]) [mm]
1 | CCOC(=O)[C@@H]1[C@@H]([C@H]2[C@@H](Oc3ccccc3)C(=O)N2c2ccc(OC)cc2)CN(C)C12C(=O)c1ccccc1C2=O | 23 | 18 | 20 | 12 | 13 | 16 | 11 | 13 | 16 | 19 | 9 | 18 | 16 | 13 | 11 | 9
2 | CCOC(=O)[C@@H]1[C@@H]([C@H]2[C@@H](c3ccccc3)C(=O)N2c2ccc(OC)cc2)C2CCCN2C12C(=O)c1ccccc1C2=O (some centres not stated) | 24 | 23 | 20 | 12 | 15 | 17 | 9 | 13 | 16 | 20 | 9 | 28 | 16 | 14 | 12 | 10
3 | CCOC(=O)[C@@H]1[C@@H]([C@H]2[C@@H](c3ccccc3)C(=O)N2c2ccc(OC)cc2)CN(C)[C@@]12C(=O)c1cccc3cccc2c13 | 21 | 18 | 15 | – | 9 | 10 | – | 10 | 13 | 18 | – | 21 | 15 | 13 | 11 | –
4 | CCOC(=O)[C@@H]1[C@@H]([C@H]2[C@@H](Oc3ccccc3)C(=O)N2c2ccc(OC)cc2)C2CCCN2[C@]12C(=O)Nc1ccccc12 (some centres not stated) | > 40 | 36 | 27 | 19 | 16 | 20 | 14 | 18 | 24 | 31 | 13 | 34 | 22 | 21 | 16 | 12
5 | CCOC(=O)[C@@H]1[C@@H]([C@H]2[C@@H](Oc3ccccc3)C(=O)N2c2ccc(OC)cc2)C2CCCN2C12C(=O)c1ccccc1C2=O (some centres not stated) | 26 | 22 | 23 | 9 | 15 | 18 | 9 | 14 | 18 | 23 | 11 | 24 | 18 | 17 | 15 | 8
6 | CCOC(=O)[C@@H]1[C@@H]([C@H]2[C@@H](Oc3ccccc3)C(=O)N2c2ccc(OC)cc2)C2CCCN2[C@@]12C(=O)c1cccc3cccc2c13 (some centres not stated) | 20 | 20 | 16 | 9 | 13 | 11 | – | 11 | 16 | – | – | 18 | 14 | – | – | 10
